# Laboratory results from publication PMC4534190, “Characterization of the MUC1-C Cytoplasmic Domain as a Cancer Target” (PLoS ONE, 2015).
# Non-standard residues stand in square brackets, D forms with d. No end group written: not given here. *: point of attachment. FITC = O=C1OC2(c3ccc(O)cc3Oc3cc(O)ccc32)c2ccc(NC(=S)*)cc21
# T1: GST-MUC1-CD (Homo sapiens, UniProt P15941)
# T1 construct: made in house
# T1 sequence (P15941 1182-1255 limits assumed): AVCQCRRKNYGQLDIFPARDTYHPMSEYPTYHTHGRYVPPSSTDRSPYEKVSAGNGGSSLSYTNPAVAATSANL
# Key:
# [1] = tested on: dog GFP-MUC1-CD and FLAG-MUC1-CD; assay: MUC1-CD homodimerization in 293T cells, dog, coimmunoprecipitation; format: cell-based; conditions: 5 μM each day for 3 days, anti-FLAG precipitation
# Experimental: (§1) Human ZR-75-1 breast cancer (ATTC) and H1975 lung cancer (ATTC) cell lines were grown in RPMI 1640 supplemented with 10% heat-inactivated fetal bovine serum (HI-FBS), 100 units/ml penicillin, and 100 μg/ml streptomycin. 293T cells were grown in DMEM with 10% HI-FBS, antibiotics, and 2 mmol/L L-glutamine. Cells were treated with FITC conjugated-GO-202 (FITC-GO-202), FITC-GO-203 or unconjugated GO-203 synthesized by the MIT Biopolymer Laboratory (Cambridge, MA) and AnaSpec, Inc (San Jose, CA). The p3XFLAG-CMV-10 (Sigma, St. Louis, MO), pEGFP-C1 and pDsRed-Monomer-N1 (Clontech, Mountain View, CA) vectors were used for transfection of rat and dog MUC1-CD and full length human MUC1 in 293T cells in the presence of Lipofectamine 2000 (Life Technologies, Grand Island, NY).
# (§2) Cell lysates were prepared as described. Soluble proteins were immunoprecipitated with anti-FLAG (Sigma, St. Louis, MO), anti-MUC1-C (Thermo Fisher Scientific, Waltham, MA) or a control IgG. The precipitates and lysates not subjected to immunoprecipitation were immunoblotted with anti-MUC1-C, anti-GFP (Abcam, Cambridge, MA), anti-FLAG and anti-FITC (Life Technologies, Grand Island, NY). Reactivity was detected with horseradish peroxidase-conjugated secondary antibodies and chemiluminescence.
# human His-MUC1-CD = assay: In vitro dimerization of human His-MUC1-CD; format: biochemical; conditions: CP-2 or GO-203 150 μM; 1 h at room temperature; non-reducing gel, anti-MUC1-C immunoblot
# Experimental: (§3) Vectors expressing GST-MUC1-CD, GST-MUC1-CD(AQA) and His-MUC1-CD, GFP-MUC1-CD and FLAG-MUC1-CD have been described. His-tagged MUC1-CD (rat and dog) were cloned in pET28a vector (Clontech, Mountain View, CA) and expressed in E. coli BL21(DE3).
# (§4) Purified His-MUC1-CD was incubated in PBS or increasing amounts of GO-203 for 1 h at room temperature as described. Proteins were then separated in non-reducing polyacrylamide gels and analyzed by immunoblotting.
# [2] = tested on: MUC1-C-expressing carcinoma and leukemia cells; set-up: method as in PMID 21421804, PMID 23867470; conditions: ref [19],[32]; cited from earlier work
# [3] = tested on: rat GFP-MUC1-CD and FLAG-MUC1-CD; assay: MUC1-CD homodimerization in 293T cells, rat, coimmunoprecipitation; format: cell-based; conditions: 5 μM each day for 3 days, anti-FLAG precipitation
# Experimental: as §1, §2
# [4] = tested on: human GFP-MUC1-CD and FLAG-MUC1-CD; assay: MUC1-CD homodimerization in 293T cells, human, coimmunoprecipitation; format: cell-based; conditions: 5 μM each day for 3 days, anti-FLAG precipitation
# Experimental: as §1, §2
# dog His-MUC1-CD = assay: In vitro dimerization of dog His-MUC1-CD; format: biochemical; conditions: GO-203 50, 150 and 450 μM; 1 h at room temperature; non-reducing gel, anti-MUC1-C immunoblot
# Experimental: as §3, §4
# rat His-MUC1-CD = assay: In vitro dimerization of rat His-MUC1-CD; format: biochemical; conditions: GO-203 50, 150 and 450 μM; 1 h at room temperature; pH 7.4; non-reducing gel, anti-MUC1-C immunoblot
# Experimental: as §3, §4
# GST-MUC1-CD = molecular target: T1, GST-MUC1-CD; assay: MS-bridge analysis of disulfide linkage, MALDI-TOF-MS; format: binding; conditions: incubation with purified GST-MUC1-CD, tryptic digest, single disulfide bridge at the CQC motif
# Experimental: (§5) Binding experiments with MUC1-CD and GO-203 were performed as described. Complexes were eluted from the glutathione beads, dialyzed and concentrated using amicon ultra centrifugal filters (Millipore, Billerica, MA). The complexes were then subjected to non-reducing electrophoresis and stained with Coomassie Blue. Protein bands were excised and analyzed by MALDI-TOF-MS as described. Briefly, gels were cut into small, uniform pieces; the gel pieces were dehydrated with acetonitrile and then rehydrated in 100 mM ammonium bicarbonate followed by 2 washing and drying cycles with ammonium bicarbonate and acetonitrile, respectively. After complete dehydration, gel pieces were suspended in 12.5 ng/μl trypsin in 50 mM ammonium bicarbonate (50 μl). In-gel digestion was carried out at 37°C for 10–12 h and the samples were acidified with 50 μl of 0.5% TFA. Thirty μl of this mixture was desalted by C-18 containing Zip-Tip (Millipore, Billerica, MA). Trypsin-digested peptides were analyzed by MALDI-TOF-MS (ABI-4800). MALDI-TOF-MS analyses were performed using a Reflector method that was optimized for acquisition for the mass range of 700–3500 amu. Data was collected and analyzed using the data Explorer software package (AB-Sciex, Framingham, MA) and MASCOT (ver.2.0.04, Matrix Science, Boston, MA). MS-bridge analysis was done using Protein Prospector (ver.4.27.2 basic and ver.5.0, UCSF). […]
# GST = assay: MS-bridge analysis of disulfide linkage, MALDI-TOF-MS, GST control; format: binding; conditions: tryptic digest of GST+GO-203, dimer peak not observed
# Experimental: as §5
# His-MUC1-CD (rat) (rat) = assay: non-reducing PAGE with immunoblot; purified His-MUC1-CD in PBS (pH 7.4) or with GO-203 (50, 150, 450 μM) for 1 h at room temperature; immunoblot with anti-MUC1-C
# His-MUC1-CD (dog) (dog) = assay: as above
# [5] = molecular target: His-MUC1-CD (human) (human); assay: as above
# GST-MUC1-CD (human) = assay: saturation binding of FITC-peptide to protein on coated plates (fluorescence); GST-MUC1-CD held on glutathione-coated 96-well plates; FITC-peptide 0.19 μM to 25 μM, 1 h at 37°C; nonspecific binding from GST alone; apparent Kd by non-linear regression
# [6] = molecular target: His-MUC1-CD (human) (human); assay: saturation binding of FITC-peptide to protein on coated plates (fluorescence); His-MUC1-CD held on nickel-coated 96-well plates; FITC-GO-203 0.19 μM to 25 μM, 1 h at 37°C; apparent Kd by non-linear regression
molecule,measurement,setting,value
"AQARRKN [CP-2, control peptide, which includes AQARRKN, reference compound]",inhibition of dog MUC1-CD homodimerization in cells,[1],no effect
same,inhibition of human His-MUC1-CD homodimerization,human His-MUC1-CD,no effect
same,inhibition of survival of MUC1-C-expressing carcinoma and leukemia cells,[2],"not CP-2, inhibits the survival of MUC1-C-expressing carcinoma and leukemia cells"
same,inhibition of rat FLAG-MUC1-CD/GFP-MUC1-CD complexes in cells,[3],no apparent effect
same,inhibition of human MUC1-CD homodimerization in cells,[4],no effect
"[R]9-CQCRRKN [GO-203, peptide in which the poly-Arg cell-penetrating domain is linked to CQCRRKN (D-amino acids)]",inhibition of dog MUC1-CD homodimerization in cells,[1],inhibition of MUC1-CD homodimerization
same,inhibition of dog His-MUC1-CD homodimerization,dog His-MUC1-CD,effectively inhibited
same,inhibition of rat His-MUC1-CD homodimerization,rat His-MUC1-CD,decreased homodimerization
same,inhibition of human His-MUC1-CD homodimerization,human His-MUC1-CD,effectively inhibited
same,inhibition of survival of MUC1-C-expressing carcinoma and leukemia cells,[2],inhibits the survival of MUC1-C-expressing carcinoma and leukemia cells
same,inhibition of rat FLAG-MUC1-CD/GFP-MUC1-CD complexes in cells,[3],inhibition of the FLAG-MUC1-CD/GFP-MUC1-CD complexes
same,inhibition of human MUC1-CD homodimerization in cells,[4],inhibition of MUC1-CD homodimerization
same,formation of disulfide bridges with MUC1-CD,GST-MUC1-CD,forms disulfide bridges specifically with MUC1-CD
same,formation of disulfide bridges with GST,GST,not with GST
His-MUC1-CD (rat) (domain or fragment),stoichiometry N,His-MUC1-CD (rat) (rat),2
His-MUC1-CD (dog) (domain or fragment),stoichiometry N,His-MUC1-CD (dog) (dog),2
His-MUC1-CD (human) (domain or fragment),stoichiometry N,[5],2
{FITC}-RRRRRRRRRCQCRRKN (cysteine pairing not given here) [FITC-GO-202],Kd,GST-MUC1-CD (human),880 nM
{FITC}-[dR][dR][dR][dR][dR][dR][dR][dR][dR][dC][dQ][dC][dR][dR][dK][dN] (cysteine pairing not given here) [FITC-GO-203],Kd,[6],860 nM
same,Kd,GST-MUC1-CD (human),630 nM
